Assays:
Plasma Kallikrein = target: T1, Plasma Kallikrein (Homo sapiens, UniProt P03952); assay: Related protease inhibition: Plasma Kallikrein (fluorogenic substrate at Km); type: biochemical; conditions: class symbols per Table 18, read-out: IC50 (human PKal)
T1 construct: FXIIa converts plasma prekallikrein (PK) to plasma kallikrein (PKa)
Procedure, shortened: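 Fluorogenic substrate at Km for thrombin, trypsin and plasma kallikrein; FXIa run at fixed 100 μM substrate. Varied inhibitor concentrations, fluorescence accumulation read over 5 min, 25° C. IC50 = concentration giving 50% inhibition versus uninhibited (100%) activity.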

Trypsin = Trypsin (Homo sapiens, UniProt P07477); assay: Related protease inhibition: Trypsin (fluorogenic substrate at Km); type: biochemical; conditions: class symbols per Table 18
Experimental: (§1) In vitro inhibition of related proteases was determined using an IC50 assay based on standard literature methods (see e.g. Shori et al., Biochem. Pharmacol., 1992, 43, 1209; Bouckaert et al., European Journal of Medicinal Chemistry 110 (2016) 181). Human serine protease enzyme Plasma Kallikrein, KLK1, FXa, Plasmin, Thrombin and Trypsin were assayed for enzymatic activity using an appropriate fluorogenic substrate at Km concentration, FXIa at fixed substrate concentration of 100 μM and various concentrations of the test compound. Protease activity was measured by monitoring the accumulation of liberated fluorescence from the substrate over 5 min at 25° C. The linear rate of fluorescence increase per minute was expressed as percentage (%) activity. IC50 values were calculated as the concentration of inhibitor giving 50% inhibition of the uninhibited enzyme activity (100%).

Plasmin = Plasmin (Homo sapiens, UniProt P00747); assay: Related protease inhibition: Plasmin (fluorogenic substrate at Km); type: biochemical; conditions: class symbols per Table 18
Plasmin, sequence (P00747 581-810 limits assumed): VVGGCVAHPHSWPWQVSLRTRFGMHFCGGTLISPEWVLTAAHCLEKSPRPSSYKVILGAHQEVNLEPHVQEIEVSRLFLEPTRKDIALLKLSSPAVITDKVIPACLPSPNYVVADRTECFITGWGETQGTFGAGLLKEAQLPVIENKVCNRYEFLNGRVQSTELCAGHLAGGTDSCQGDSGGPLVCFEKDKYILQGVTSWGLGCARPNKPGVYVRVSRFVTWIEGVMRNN
Plasmin, sequence (P00747 97-580 partner limits assumed): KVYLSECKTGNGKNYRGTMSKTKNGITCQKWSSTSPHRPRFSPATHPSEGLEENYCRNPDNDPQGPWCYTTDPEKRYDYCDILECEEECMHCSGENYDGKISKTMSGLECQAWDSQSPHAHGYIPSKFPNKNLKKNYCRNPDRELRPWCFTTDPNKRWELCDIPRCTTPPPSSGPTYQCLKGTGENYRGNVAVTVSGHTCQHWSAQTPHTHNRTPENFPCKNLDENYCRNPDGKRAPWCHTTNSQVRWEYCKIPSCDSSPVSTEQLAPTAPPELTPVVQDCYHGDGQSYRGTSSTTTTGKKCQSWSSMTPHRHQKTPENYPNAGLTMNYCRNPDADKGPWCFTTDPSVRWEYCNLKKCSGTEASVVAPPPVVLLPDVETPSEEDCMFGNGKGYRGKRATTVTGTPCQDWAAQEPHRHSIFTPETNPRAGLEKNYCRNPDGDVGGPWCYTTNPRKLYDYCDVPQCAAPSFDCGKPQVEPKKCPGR
Experimental: as §1

KLK1 = KLK1 (Homo sapiens, UniProt P06870); assay: Related protease inhibition: KLK1 (fluorogenic substrate at Km); type: biochemical; conditions: class symbols per Table 18
KLK1, sequence (P06870 25-262): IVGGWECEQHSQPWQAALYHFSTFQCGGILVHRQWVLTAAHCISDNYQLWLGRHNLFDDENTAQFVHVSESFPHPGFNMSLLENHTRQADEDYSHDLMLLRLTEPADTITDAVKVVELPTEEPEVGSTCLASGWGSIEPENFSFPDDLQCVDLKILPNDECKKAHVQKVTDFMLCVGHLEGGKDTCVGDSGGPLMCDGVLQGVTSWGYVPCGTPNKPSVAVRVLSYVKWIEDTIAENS
Procedure, shortened: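 Percent activity is derived from the linear fluorescence increase per minute, measured over 5 min at 25° C. IC50 marks 50% inhibition of uninhibited activity.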

Thrombin = Thrombin (Homo sapiens, UniProt P00734); assay: Related protease inhibition: Thrombin (fluorogenic substrate at Km); type: biochemical; conditions: class symbols per Table 18
Experimental: as §1

FXa = FXa (Homo sapiens, UniProt P00742); assay: Related protease inhibition: FXa (fluorogenic substrate at Km); type: biochemical; conditions: class symbols per Table 18
FXa, sequence (P00742 235-488 limits assumed): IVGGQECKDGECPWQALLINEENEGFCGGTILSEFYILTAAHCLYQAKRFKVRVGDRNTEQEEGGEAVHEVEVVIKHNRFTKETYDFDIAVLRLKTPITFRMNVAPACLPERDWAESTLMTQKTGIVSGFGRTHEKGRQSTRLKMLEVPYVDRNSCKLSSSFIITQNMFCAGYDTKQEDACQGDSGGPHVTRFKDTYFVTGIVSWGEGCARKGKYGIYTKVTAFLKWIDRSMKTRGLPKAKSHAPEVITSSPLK
FXa, sequence (P00742 41-179 partner limits assumed): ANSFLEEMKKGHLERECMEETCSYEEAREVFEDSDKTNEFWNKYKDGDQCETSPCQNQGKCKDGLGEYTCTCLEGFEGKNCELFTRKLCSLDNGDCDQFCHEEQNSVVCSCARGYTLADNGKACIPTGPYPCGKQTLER
Experimental: as §1

Human Factor XIIa = target: T2, Human Factor XIIa (Homo sapiens, UniProt P00748); assay: Determination of FXIIa inhibition (fluorogenic substrate H-DPro-Phe-Arg-AFC, IC50 assay); type: biochemical; conditions: substrate at Km concentration, 25° C.; category scale; read-out: Human FXII IC50 (nm)
T2 construct: Proteolytic cleavage of FXII to heavy and light chains of FXIIa dramatically increases catalytic activity; purchased Enzyme Research Laboratories
T2 sequence (P00748 373-615 limits assumed): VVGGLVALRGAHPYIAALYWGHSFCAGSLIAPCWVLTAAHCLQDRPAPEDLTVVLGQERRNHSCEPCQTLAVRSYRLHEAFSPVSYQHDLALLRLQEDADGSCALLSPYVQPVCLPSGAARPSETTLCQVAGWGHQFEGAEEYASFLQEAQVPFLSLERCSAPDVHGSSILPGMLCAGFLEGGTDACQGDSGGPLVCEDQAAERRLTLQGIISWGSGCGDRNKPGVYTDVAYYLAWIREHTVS
T2 sequence (P00748 20-372 partner limits assumed): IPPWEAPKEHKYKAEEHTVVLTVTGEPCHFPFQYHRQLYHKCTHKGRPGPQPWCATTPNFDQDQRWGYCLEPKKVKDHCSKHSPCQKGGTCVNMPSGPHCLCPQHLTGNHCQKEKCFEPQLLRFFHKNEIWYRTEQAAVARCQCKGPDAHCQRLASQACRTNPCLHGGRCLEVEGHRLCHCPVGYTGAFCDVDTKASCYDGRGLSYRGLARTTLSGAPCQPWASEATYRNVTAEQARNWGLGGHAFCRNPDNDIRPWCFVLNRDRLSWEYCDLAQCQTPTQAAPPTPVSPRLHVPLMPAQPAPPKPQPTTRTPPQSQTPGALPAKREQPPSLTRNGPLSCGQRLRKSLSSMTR
Procedure, shortened: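 Human FXIIa incubated at 25° C. with fluorogenic H-DPro-Phe-Arg-AFC at its Km concentration plus varying compound levels. Linear fluorescence increase over 5 min taken as % activity; IC50 is concentration halving uninhibited activity.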

[1] = Pharmacokinetics after single intravenous and single oral dose in rats; type: in vivo; conditions: rat, plasma, male Sprague-Dawley rats, single iv (nominal 1 mg/kg) and single po (nominal 5 mg/kg) dose
Experimental: Pharmacokinetic studies of the compounds in Table 19 were performed to assess the pharmacokinetics following a single intravenous dose and a single oral dose in male Sprague-Dawley rats. Two rats were given a single intravenous dose of 1 mL/kg of a nominal 1 mg/ml (1 mg/kg) composition of test compound in 10% DMSO/10% Cremophor EL/80% SWFI vehicle. Two rats were given a single oral dose of 5 ml/kg of a nominal 1 mg/mL (5 mg/kg) composition of test compound in 10% DMSO/10% Cremophor EL/80% SWFI vehicle.
Following intravenous dosing, blood samples were collected over a period of 12 h. Sample times were 2, 5, 15 and 30 min then 1, 2, 4, 6, and 12 h. Following oral dosing, blood samples were collected over a period of 24 h. Sample times were 5, 15 and 30 min then 1, 2, 4, 6, 8, 12 and 24 h.
Following collection, blood samples were centrifuged and the plasma fraction analysed for concentration of test compound by LCMS. Oral bioavailability and half-life calculations from these studies were obtained using Phoenix WinNonlin (v8.0) and are shown below: […]

T1 sequence (P03952 391-638 limits assumed): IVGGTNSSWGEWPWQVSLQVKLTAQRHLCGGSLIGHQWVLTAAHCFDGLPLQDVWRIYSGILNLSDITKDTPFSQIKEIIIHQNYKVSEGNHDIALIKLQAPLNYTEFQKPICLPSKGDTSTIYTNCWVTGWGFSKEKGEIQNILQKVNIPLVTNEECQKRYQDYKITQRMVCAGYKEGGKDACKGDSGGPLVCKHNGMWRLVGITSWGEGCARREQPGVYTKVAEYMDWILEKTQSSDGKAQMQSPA
T1 sequence (P03952 20-390 partner limits assumed): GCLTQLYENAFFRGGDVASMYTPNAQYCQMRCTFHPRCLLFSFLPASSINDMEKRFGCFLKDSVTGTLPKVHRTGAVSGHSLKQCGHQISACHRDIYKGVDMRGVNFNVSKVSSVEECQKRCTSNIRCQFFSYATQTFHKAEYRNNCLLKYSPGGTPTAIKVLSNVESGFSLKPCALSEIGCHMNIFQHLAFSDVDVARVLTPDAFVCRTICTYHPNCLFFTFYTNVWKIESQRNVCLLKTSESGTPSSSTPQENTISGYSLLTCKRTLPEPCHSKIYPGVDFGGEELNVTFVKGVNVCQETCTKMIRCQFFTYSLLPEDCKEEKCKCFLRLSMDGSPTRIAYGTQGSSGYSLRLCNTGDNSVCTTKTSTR

SMILES | IC50 (Plasma Kallikrein) | IC50 (Trypsin) | IC50 (Plasmin) | IC50 (KLK1) | IC50 (Thrombin) | IC50 (FXa) | IC50 (Human Factor XIIa) | half-life ([1]; half-life, Phoenix WinNonlin) | bioavailability ([1]; oral bioavailability, 10% DMSO/10% Cremophor EL/80% SWFI)
Nc1nccc2c(NCC34CC(COc5ccc6c(c5)CNC6=O)(CO3)C4)cccc12 [Example 6618, 5-[[1-[[(1-Aminoisoquinolin-5-yl)amino]methyl]-2-oxabicyclo[2.1.1]hexan-4-yl]methoxy]-2,3-dihydroisoindol-1-one] | > 40 µM | 10 to 40 µM | > 40 µM | 3 to 10 µM | > 40 µM | 10 to 40 µM | 0.01 to 0.1 µM |  | 
Cn1ccc(OCC23CCOC(CNc4cccc5c(N)nccc45)(C2)C3)nc1=O [Example 10940, 4-((1-(((1-aminoisoquinolin-5-yl)amino)methyl)-2-oxabicyclo[3.1.1]heptan-5-yl)methoxy)-1-methylpyrimidin-2(1H)-one] | > 40 µM | 10 to 40 µM | > 40 µM | 10 to 40 µM | > 40 µM | > 40 µM | 0.1 to 0.3 µM |  | 
Cn1ccc(OCC23CN(CCCc4ccccc4)C(CNc4cccc5c(N)nccc45)(C2)C3)cc1=O [Example 12019, 4-((1-(((1-Aminoisoquinolin-5-yl)amino)methyl)-2-(3-phenylpropyl)-2-azabicyclo[2.1.1]hexan-4-yl)methoxy)-1-methylpyridin-2(1H)-one] | > 40 µM | > 40 µM | > 40 µM | 1 to 3 µM | > 40 µM | > 40 µM | 0.01 to 0.1 µM |  | 
Cn1ccc(OCC23CC(CNc4cccc5c(N)nccc45)(CCO2)C3)cc1=O [Example 11001, 4-((5-(((1-aminoisoquinolin-5-yl)amino)methyl)-2-oxabicyclo[3.1.1]heptan-1-yl)methoxy)-1-methylpyridin-2(1H)-one] | > 40 µM | 10 to 40 µM | > 40 µM | 10 to 40 µM | > 40 µM | > 40 µM | 0.1 to 0.3 µM |  | 
Cc1cc(OCC23CN(C(=O)NCc4ccccc4)C(CNc4cccc5c(N)nccc45)(C2)C3)cc(=O)n1C [Example 12038, 1-(((1-aminoisoquinolin-5-yl)amino)methyl)-N-benzyl-4-(((1,6-dimethyl-2-oxo-1,2-dihydropyridin-4-yl)oxy)methyl)-2-azabicyclo[2.1.1]hexane-2-carboxamide] | 3 to 10 µM | 10 to 40 µM | 10 to 40 µM | 3 to 10 µM | > 40 µM | 1 to 3 µM | 0.001 to 0.01 µM |  | 
Nc1nccc2c(NCC34CC(COc5ccn6cnnc6c5)(CCO3)C4)cccc12 [Example 10926, 5-N-[[5-([1,2,4]Triazolo[4,3-a]pyridin-7-yloxymethyl)-2-oxabicyclo[3.1.1]heptan-1-yl]methyl]isoquinoline-1,5-diamine] | > 40 µM | 3 to 10 µM | > 40 µM | 3 to 10 µM | > 40 µM | > 40 µM | 0.01 to 0.1 µM |  | 
CN1Cc2cc(OCC34COC(CNc5cccc6c(N)nccc56)(C3)C4)ccc2C1=O [Example 6621, 5-((1-(((1-aminoisoquinolin-5-yl)amino)methyl)-2-oxabicyclo[2.1.1]hexan-4-yl)methoxy)-2-methylisoindolin-1-one] | > 40 µM | > 40 µM | > 40 µM | 3 to 10 µM | > 40 µM | > 40 µM | 0.1 to 0.3 µM |  | 
Cc1cc(OCC23CCOC(CNc4cccc5c(N)nccc45)(C2)C3)cc(=O)n1C [Example 10928, 4-((1-(((1-Aminoisoquinolin-5-yl)amino)methyl)-2-oxabicyclo[3.1.1]heptan-5-yl)methoxy)-1,6-dimethylpyridin-2(1H)-one] | > 40 µM | 10 to 40 µM | > 40 µM | 10 to 40 µM | > 40 µM | 10 to 40 µM | 0.01 to 0.1 µM |  | 
Cn1ccc(OCC23CC(CNc4cccc5c(N)nccc45)(CO2)C3)cc1=O [Example 2205, 4-((4-(((1-aminoisoquinolin-5-yl)amino)methyl)-2-oxabicyclo[2.1.1]hexan-1-yl)methoxy)-1-methylpyridin-2(1H)-one] | > 40 µM | > 40 µM | > 40 µM | 10 to 40 µM | > 40 µM | > 40 µM | 0.3 to 1 µM |  | 
Nc1nccc2c(NCC34CC(COc5ccn6cnnc6c5)(CO3)C4)cccc12 [Example 6629, N5-((4-(([1,2,4]triazolo[4,3-a]pyridin-7-yloxy)methyl)-2-oxabicyclo[2.1.1]hexan-1-yl)methyl)isoquinoline-1,5-diamine] | > 40 µM | 10 to 40 µM | 10 to 40 µM | 1 to 3 µM | > 40 µM | > 40 µM | 0.01 to 0.1 µM |  | 
Nc1nccc2c(N3CCC4(CC(COc5ccn6ccnc6c5)C4)C3)cccc12 (single isomer, unassigned) [Example 8806, 5-(trans*-2-((imidazo[1,2-a]pyridin-7-yloxy)methyl)-6-azaspiro[3.4]octan-6-yl)isoquinolin-1-amine] | > 40 µM | > 40 µM | > 40 µM | 10 to 40 µM | > 40 µM | > 40 µM | 0.1 to 0.3 µM |  | 
Cn1ccc(OCC23CN(C(=O)CCc4ccccc4)C(CNc4cccc5c(N)nccc45)(C2)C3)cc1=O [Example 12016, 4-((1-(((1-aminoisoquinolin-5-yl)amino)methyl)-2-(3-phenylpropanoyl)-2-azabicyclo[2.1.1]hexan-4-yl)methoxy)-1-methylpyridin-2(1H)-one] |  |  |  |  |  |  | 0.01 to 0.1 µM | 1.08 h | 0.4%
Nc1nccc2c(NCC34CC(COc5ccc6nnc(C(F)F)n6c5)(CO3)C4)cccc12 [Example 6620, N5-((4-(((3-(difluoromethyl)-[1,2,4]triazolo[4,3-a]pyridin-6-yl)oxy)methyl)-2-oxabicyclo[2.1.1]hexan-1-yl)methyl)isoquinoline-1,5-diamine] | > 40 µM | 3 to 10 µM | > 40 µM | 3 to 10 µM | > 40 µM | > 40 µM | 0.3 to 1 µM |  | 
Cc1cnc2ccc(OCC34CC(CNc5cccc6c(N)nccc56)(CO3)C4)cn12 [Example 2212, N5-((1-(((3-methylimidazo[1,2-a]pyridin-6-yl)oxy)methyl)-2-oxabicyclo[2.1.1]hexan-4-yl)methyl)isoquinoline-1,5-diamine] | 10 to 40 µM | 10 to 40 µM | > 40 µM | 1 to 3 µM | > 40 µM | 10 to 40 µM | 0.01 to 0.1 µM |  | 
